Among the test systems are NCI-H226 lung; OVCAR-8 ovarian; HT29 colon; KM12 colon; SNB-19 CNS; SR leukemia; NCI-H23 lung; UACC-257 melanoma; A549 NSCLC; HS 578T breast.
Holding throughout (test): NCI tumour cell line growth inhibition, 48 h

Each structure is given as a SMILES string.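 All cell lines were grown in 96-well plates and treated with compound for 48 hours. The concentration for 50% growth inhibition is given as GI50. TGI marks complete inhibition of growth.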

As to `COc1cccc(C2SC(N)=Nc3c2c(C)nn3C(=O)c2ccccc2O)c1` (stereo unspecified), the TGI is above 7.78 µM in the assay on NCI-H226 lung; above 10 µM in the assay with OVCAR-8 ovarian; above 10 µM in the assay on HT29 colon; above 10 µM in the assay on KM12 colon; above 10 µM in the assay on SNB-19 CNS; above 7.36 µM in the assay on SR leukemia. Further, the TGI in the assay with NCI-H23 lung, in the assay on UACC-257 melanoma and in the assay with A549 NSCLC was above 10 µM throughout.
For the compound `CCC(=C/[C@H](C)C/C=C/C(C)=C/[C@@H](C)C(=O)[C@@H](C)[C@H](O)[C@@H](C)CC)/C=C/[C@H]1OC(=O)C=C[C@@H]1C`, the GI50 in the assay with NCI-H226 lung, in the assay with OVCAR-8 ovarian, in the assay on HT29 colon, in the assay with KM12 colon, with SNB-19 CNS and with SR leukemia was below 0.01 µM in each case. Moreover, the GI50 in the assay on NCI-H23 lung, in the assay with A549 NSCLC and in the assay with HS 578T breast was below 0.01 µM in each case. Further, the TGI with NCI-H226 lung was determined as 0.554 µM; in the assay with OVCAR-8 ovarian it was 10.3 µM; with HT29 colon, 1.15 µM; in the assay on KM12 colon, 1.15 µM; with SNB-19 CNS it was 2.12 µM; in the assay with NCI-H23 lung it was 3.36 µM. The TGI with HS 578T breast was found to be 1.62 µM.
Regarding `Cc1ccc(Oc2ccc(C)cc2N)cc1`, the TGI with NCI-H226 lung, in the assay on OVCAR-8 ovarian, in the assay with HT29 colon, in the assay on KM12 colon, in the assay on SNB-19 CNS and in the assay on SR leukemia was above 100 µM throughout. The TGI with NCI-H23 lung, in the assay with UACC-257 melanoma and with A549 NSCLC was above 100 µM throughout.
Consider `CCCCCC[C@@H]1CCC2C(CO)[C@@H](O)CC[C@@H]2C1` (stereo partly specified), for which the TGI came out at 39.7 µM with NCI-H226 lung; 33.4 µM in the assay on OVCAR-8 ovarian; 34.1 µM in the assay with HT29 colon; 36.2 µM in the assay on KM12 colon; 35.8 µM in the assay on SNB-19 CNS; 53.6 µM in the assay with SR leukemia. For the same compound, the values for the TGI with NCI-H23 lung, in the assay with UACC-257 melanoma and in the assay with A549 NSCLC were 30.8 µM, 31 µM and 32.1 µM, respectively.
With `COCCOc1ccc(-c2nc3ccc(-c4nc5ccc(N6CCN(C)CC6)cc5[nH]4)cc3[nH]2)cc1`, the GI50 is 0.931 µM in the assay on OVCAR-8 ovarian; 0.579 µM in the assay on HT29 colon; 2.58 µM in the assay with KM12 colon; 1.87 µM with SNB-19 CNS; 0.5 µM in the assay with SR leukemia; 1.21 µM with NCI-H23 lung. For the same compound, the values for the GI50 in the assay on UACC-257 melanoma, in the assay on A549 NSCLC and with HS 578T breast were 1.71 µM, 8.05 µM and 2.94 µM, respectively. The TGI was 23.4 µM in the assay on OVCAR-8 ovarian; above 100 µM with HT29 colon; 14.3 µM in the assay with KM12 colon; 10.5 µM in the assay with SNB-19 CNS; 21.9 µM in the assay on SR leukemia; 5.09 µM in the assay with NCI-H23 lung. Further, the TGI with UACC-257 melanoma stood at 5.92 µM; in the assay on A549 NSCLC, 35.2 µM; with HS 578T breast it was 15.9 µM.
`CCOC(=O)C1=C(C(=O)OCC)C2c3ccccc3C=CN2C(C(=O)OCC)=C(SC)S1` (stereo unspecified): the TGI in the assay on NCI-H226 lung, in the assay with OVCAR-8 ovarian, with HT29 colon, in the assay with SNB-19 CNS, in the assay with SR leukemia and in the assay on NCI-H23 lung was above 100 µM each time. Also, the TGI in the assay with UACC-257 melanoma and with A549 NSCLC was above 100 µM in each case.
For `C[C@]12CCC3c4ccc(O)cc4CCC3C1CC[C@@]2(O)CNC(=O)/C=C/c1ccc(O)c(O)c1` (stereo partly specified), the GI50 in the assay on NCI-H226 lung was 15.4 µM; with OVCAR-8 ovarian, 2.65 µM; in the assay on HT29 colon it was 4.83 µM; in the assay with KM12 colon it was 2.89 µM; in the assay with SNB-19 CNS, 10.6 µM; in the assay on SR leukemia it was 5.66 µM. Further, the GI50 was 0.0562 µM in the assay with UACC-257 melanoma, 2.63 µM in the assay with A549 NSCLC and 6.24 µM with HS 578T breast. The TGI in the assay with NCI-H226 lung was determined as 33.1 µM; in the assay on OVCAR-8 ovarian it was 17.1 µM; in the assay with HT29 colon, 19.1 µM; with KM12 colon, 11.1 µM; in the assay with SNB-19 CNS, 23.8 µM; in the assay on SR leukemia it was 26.7 µM. Besides, the TGI with UACC-257 melanoma came out at 6.54 µM; in the assay with A549 NSCLC, 9.68 µM; with HS 578T breast, 30.8 µM.
Regarding `COC(=O)CC(c1ccccc1)C1(c2ccccc2)SCCS1` (stereo unspecified), the TGI in the assay on NCI-H226 lung, in the assay with OVCAR-8 ovarian, in the assay with HT29 colon, in the assay on KM12 colon, in the assay on SNB-19 CNS and with SR leukemia was above 290 µM each time. In addition, the TGI in the assay on NCI-H23 lung, with UACC-257 melanoma and in the assay with A549 NSCLC was above 290 µM in each case.
On to `CC1SC(c2ccc(F)cc2)N(NC(=O)C(O)c2ccccc2)C1=O` (stereo unspecified), for which the GI50 in the assay with NCI-H226 lung, in the assay with OVCAR-8 ovarian, with HT29 colon, in the assay on KM12 colon, with SNB-19 CNS and in the assay with SR leukemia was above 100 µM in each case. In addition, the GI50 in the assay on UACC-257 melanoma, with A549 NSCLC and in the assay on HS 578T breast was above 100 µM each time. Moreover, the TGI with NCI-H226 lung, with OVCAR-8 ovarian, in the assay on HT29 colon, in the assay with KM12 colon, in the assay on SNB-19 CNS and with SR leukemia was above 100 µM throughout. The TGI in the assay with UACC-257 melanoma, in the assay on A549 NSCLC and with HS 578T breast was above 100 µM each time.
For the compound `CCN(Cc1ccc(F)cc1)c1cc(Cl)c(CO)c(Cl)c1`, the GI50 is 3.69 µM in the assay on NCI-H226 lung; 14.3 µM in the assay with OVCAR-8 ovarian; 16.2 µM with HT29 colon; 12.5 µM in the assay with SNB-19 CNS; 15.4 µM in the assay with SR leukemia; 13 µM in the assay on NCI-H23 lung. Besides, the figures for the GI50 in the assay on UACC-257 melanoma, with A549 NSCLC and in the assay with HS 578T breast were 6.56 µM, 12.3 µM and 12.2 µM, respectively. Further, the TGI with NCI-H226 lung worked out at 17.1 µM; in the assay on OVCAR-8 ovarian it was 31.3 µM; in the assay on HT29 colon, 33.2 µM; in the assay on SNB-19 CNS, 26 µM; in the assay with SR leukemia it was 39.6 µM; with NCI-H23 lung, 28.8 µM. Moreover, the figures for the TGI in the assay with UACC-257 melanoma, with A549 NSCLC and in the assay on HS 578T breast were 20.4 µM, 29.1 µM and 33.4 µM, respectively.
As for `CC(C)(C)c1cc2c(O)c3cccc4c(=O)c5cccc6c5-c(c34)c2c(c1)c6=O`, the TGI in the assay on NCI-H226 lung was above 100 µM; in the assay on OVCAR-8 ovarian, above 100 µM; in the assay with HT29 colon, above 100 µM; with KM12 colon, above 100 µM; with SNB-19 CNS it was above 100 µM; in the assay with SR leukemia, 30.4 µM. The TGI in the assay on NCI-H23 lung, in the assay with UACC-257 melanoma and with A549 NSCLC was above 100 µM each time.

(Values after PubChem BioAssay (NCI).)
